Data published in US6984649B1, “Pyridine derivatives” (Bayer Aktiengesellschaft, priority 2000, dated 2006).
Where a name gives a salt, the structure may show the parent alone.

Columns and labels:
human IKK-β = target: T1, human IKK-β (Homo sapiens, UniProt O14920); experiment: IKK-β kinase inhibitory assay; assay type: biochemical; conditions: compounds as yielded by solid phase synthesis, purity about 40 to 90%, read-out: In vitro activity grade (In vitro IC50)
T1 construct: A cDNA fragment encoding human IKK-β open reading frame was generated by PCR; His tag (from pcDNA3.1/His C); made in house; host or cells: Sf21 insect cells (baculovirus); substrate made in E. coli
T1 sequence (O14920 1-756): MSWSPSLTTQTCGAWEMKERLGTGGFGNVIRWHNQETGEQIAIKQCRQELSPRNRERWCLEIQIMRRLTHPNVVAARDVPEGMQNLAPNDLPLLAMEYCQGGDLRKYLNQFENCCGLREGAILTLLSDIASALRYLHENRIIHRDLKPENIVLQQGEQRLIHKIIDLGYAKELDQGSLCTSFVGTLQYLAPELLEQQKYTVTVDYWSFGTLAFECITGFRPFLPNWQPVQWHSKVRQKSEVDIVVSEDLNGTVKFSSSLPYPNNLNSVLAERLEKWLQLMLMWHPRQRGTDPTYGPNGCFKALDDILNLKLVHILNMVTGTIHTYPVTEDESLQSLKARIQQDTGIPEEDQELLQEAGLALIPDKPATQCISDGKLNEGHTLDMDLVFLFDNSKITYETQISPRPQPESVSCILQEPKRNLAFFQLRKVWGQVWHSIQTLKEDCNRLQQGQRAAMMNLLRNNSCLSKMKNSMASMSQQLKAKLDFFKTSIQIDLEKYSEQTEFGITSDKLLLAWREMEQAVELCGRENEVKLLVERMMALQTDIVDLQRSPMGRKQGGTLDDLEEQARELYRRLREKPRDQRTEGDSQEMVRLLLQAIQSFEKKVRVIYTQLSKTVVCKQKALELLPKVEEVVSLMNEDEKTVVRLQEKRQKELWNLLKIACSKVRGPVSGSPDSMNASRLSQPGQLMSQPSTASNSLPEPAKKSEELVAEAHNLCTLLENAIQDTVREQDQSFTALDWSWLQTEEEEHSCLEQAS
Method in brief: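 Radiometric read-out: streptavidin capture of 33P-labelled bio-GST-IκBα(1-54), 0.2 μM, after a 2 h room-temperature reaction started with ATP/[γ-33P]ATP. Enzyme was recombinant His-tagged human IKK-β expressed in Sf21 insect cells, used at 0.6 μg/ml in Tris-HCl pH 7.6/MgCl2 kinase buffer. Compounds added in 2.5% DMSO.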

Jurkat T cells = experiment: IL-2 production in Jurkat T cells in response to anti-CD3/anti-CD28 antibody stimulation; assay type: cell-based; conditions: Homo sapiens, read-out: Cellular activity grade (Jurkat) (Cellular IC50)

Compound | IC50 (human IKK-β) [nM] | IC50 (Jurkat T cells) [nM]
N#Cc1c(C2CCCNC2)cc(-c2ccccc2O)nc1N (stereo not shown) [Example 1-1, 2-amino-6-(2-hydroxyphenyl)-4-(3-piperidinyl)-nicotinonitrile hydrochloride] | < 500 | < 1000
N#Cc1c(C2CCNC2)cc(-c2ccccc2O)nc1N (stereo not shown) [Example 1-2, 2-amino-6-(2-hydroxyphenyl)-4-(3-pirrolidinyl)nicotinonitrile trifluoroacetate] | < 500 | 1000 to 10000
N#Cc1c(N)nc(-c2ccccc2O)c(F)c1C1CCCNC1 (stereo not shown) [Example 1-4, 2-amino-5-fluoro-6-(2-hydroxyphenyl)-4-(3-piperidinyl)-nicotinonitrile trifluoroacetate] | < 500 | 1000 to 10000
N#Cc1c(C2CCCNC2)cc(-c2ccccc2O)nc1NCc1ccccc1 (stereo not shown) [Example 4-1, 2-(benzylamino)-6-(2-hydroxyphenyl)-4-(3-piperidinyl)nicotinonitrile hydrochloride] | < 500 | 1000 to 10000
Cc1c(C2CCCNC2)cc(-c2ccccc2O)nc1N (stereo not shown) [Example 14-1, 2-[6-amino-5-methyl-4-(3-piperidinyl)-2-pyridinyl]phenol hydrochloride] | < 500 | 1000 to 10000
O=C1Nc2nc(-c3ccccc3O)cc(C3CCCNC3)c2CO1 (stereo not shown) [Example 18-2, 7-(2-hydroxyphenyl)-5-(3-piperidinyl)-1,4-dihydro-2H-pyrido[2,3-d][1,3]oxazin-2-one hydrochloride] | < 500 | 1000 to 10000
N#Cc1c(N2CCC(C(N)=O)CC2)cc(-c2ccccc2O)nc1N [Example 34-2, 1-[2-amino-3-cyano-6-(2-hydroxyphenyl)-4-pyridinyl]-4-piperidinecarboxamide] | 500 to 2000 | –
N#Cc1c(N2CCCC(N)C2)cc(-c2ccccc2O)nc1N (stereo not shown) [Example 34-3, 2-amino-4-(3-amino-1-piperidinyl)-6-(2-hydroxyphenyl)nicotinonitrile hydrochloride] | 500 to 2000 | –
N#Cc1c(NC2CCCNC2)cc(-c2ccccc2O)nc1N (stereo not shown) [Example 34-4, 2-amino-6-(2-hydroxyphenyl)-4-(3-piperidinylamino)nicotinonitrile hydrochloride] | < 500 | –
NCCNc1cc(-c2c(O)cccc2OCC2CC2)nc2c1COC(=O)N2 [Example 35-1, 5-[(2-aminoethyl)amino]-7-[2-(cyclopropylmethoxy)-6-hydroxyphenyl]-1,4-dihydro-2H-pyrido[2,3-d][1,3]oxazin-2-one hydrochloride] | < 500 | –
